# “Also recorded” adds a separate entry of the source.
# Columns and labels:
# [1] = tested on: SW1 tumors; experiment: CD4+/CD8+ T cell immunodepletion, SW1 model; type: in vivo, mouse
# Protocol: (§1) Single-cell suspensions from tumor and spleen tissue were stained with Live/Dead Zombie NIR (Biolegend, (San Diego, CA)) at 1:1,000 in PBS for 20 min. Cell suspensions were spun down and stained with the following antibodies: APC anti-mouse CD3 (0.5 μg/mL, BD Biosciences (San Jose, CA)), Pacific Blue anti-mouse CD4 ([…], BD Biosciences (San Jose, CA)), BV785 anti-mouse CD8 (0.5 μg/mL, BD Biosciences (San Jose, CA)), PerCP anti-mouse CD25 ([…], BD Biosciences (San Jose, CA)), FITC anti-mouse F4/80 (0.5 μg/mL, BD Biosciences (San Jose, CA)), PeCy7 anti-mouse CD11c (0.5 μg/mL, BD Biosciences (San Jose, CA)), PE anti-mouse NK1.1 (0.5 μg/mL, BD Biosciences (San Jose, CA)), PE anti-mouse DX5 (0.5 μg/mL, BD Biosciences (San Jose, CA)), PerCP-Cy5.5 anti-mouse CD11b (0.5 μg/mL, BD Biosciences (San Jose, CA)). After staining, the cells were washed and fixed (2% formaldehyde), followed by another wash and flow cytometric analysis. The compensation controls were prepared using 0.5 μg/ml. of each antibody with beads UltraComp eBeads™, (ThermoFisher Scientific (Waltham, MA)). All samples were subject to flow cytometric analysis using a LSR Flow Cytometer (BD Biosciences (San Jose, CA)). Flow cytometric data was further analyzed using FlowJo™ analysis software (BD Biosciences (San Jose, CA)). TIL profiles were determined as a measure of TIL subpopulations per gram of tumor tissues or % of total splenocytes.
# Three days prior to tumor engraftment, PBS (control) or ˜300 μg α-CD4 (20 mg/kg, for immunodepletion, GK1.5, Bioxcell (West Lebanon, NH)) or α-CD8 (20 mg/kg, for immunodepletion, 2.43, Bioxcell (West Lebanon, NH)) was administered by intraperitoneal injection into the indicated cohorts of mice. Injections of immunodepletion antibody or PBS were continued every 3-4 days until endpoint. Syngeneic recipient C3H/HeN female or C57BL/6 male mice were injected with SW1 or SMI cells, respectively. After approximately 7 days, when the tumors reached ˜150 mm^3, the mice were either supplemented with or without 100 mM L-fucose (Biosynth (Oak Terrace, IL)) via drinking water, which was provided ad libitum. When the tumors reached ˜2 cm^3, the animals were sacrificed, and the tumors were either processed for flow cytometric profiling or for histological analysis as indicated.
# [2] = tested on: cell surface fucosylation; experiment: Flow cytometry of cell surface fucosylation (AAL lectin) in melanoma cells; type: cell-based, human; conditions: 250 μM, 72 h, panel of melanoma cell lines
# Protocol: Indicated cells were treated for 72 h with DMSO, 250 μM fucosyltransferase inhibitor (FUTi) (Millipore Sigma (St. Louis, MO)), or 250 μM of L-fucose (Biosynth (Oak Terrace, IL)). After 72 h, cells were stained with 0.1 μM PKH26 (Millipore Sigma (St. Louis, MO)) prior to fixation in 4% formaldehyde solution. The cells were stained with anti-HLA-DRB1 (rabbit anti-human HLA-DRB1 (0.2 μg/mL, ab92371, Abcam (Cambridge, UK)) and fluorescein AAL (0.2 μg/ml. Vector Labs (Burlingame, CA)), or anti-human or anti-mouse PD-L1 (Novus Biologicals (Centennial, CO) or Biolegend (San Diego, CA), respectively) overnight. The following day the cells were washed 3 times prior to adding AlexaFluor 594 donkey anti-rabbit (0.8 μg/mL, ThermoFisher Scientific (Waltham, MA)). Cells were washed 3 times and then subject to flow cytometric analyses using a FACSCalibur™ (BD Biosciences (San Jose, CA)). Samples were analyzed using FlowJo™ analysis software (BD Biosciences (San Jose, CA)). Median values of DRB1 and AAL were normalized to PKH26 values and statistical analysis was performed using GraphPad Prism™.
# [3] = tested on: SW1 tumors; experiment: H2K1/EB1 knockdown and EB1 fucomutant reconstitution SW1 tumor model; type: in vivo, mouse; conditions: for L-fuc-triggered tumor suppression: EB1 (IEβ) knockdown tumors (shEB1, shEB1+EV)
# Protocol: as §1
# SW1 mouse melanoma cells expressing either shNT (non-targeting shRNA), shH2K1, shEB1, shNT+EV, shEB1+EV, shEB1+EB1 WT, or shEB1+EB1 N46G were injected into syngeneic C3H/HeN female mice. After approximately 7 days, when the mice tumors reached ˜150 mm^3, the mice were either supplemented with or without 100 mM L-fucose (Biosynth (Oak Terrace, IL)) via drinking water, which was provided ad libitum. When the tumors reached ˜2 cm^3, the animals were sacrificed, and the tumors were either processed for flow cytometric profiling or for histological analysis as indicated
structure (smiles),measurement,setting,value
C[C@H](O)[C@@H](O)[C@@H](O)[C@H](O)C=O [L-fucose],L-fuc-induced tumor suppression and increase in total TILs,[1]; CD4+ T cell-depleted mice,abrogated tumor suppression
same,"increases in intratumoral NK, DC and CD8+ T cells",[1]; CD4+ T cell-depleted mice,completely blunted
same,L-fuc-induced tumor suppression and increase in total TILs,"[1]; CD4+ T cell-depleted mice, listed as L-fuc",completely abrogated
same,reduced tumor growth,[1]; CD8+ T cell-depleted mice,~50%
same,reduced tumor growth,[1]; control (PBS-injected) mice,~60%
same,increase in intratumoral CD8+ T cells,[1]; control mice,~10 fold
same,increase in intratumoral DC,[1]; control mice,~10 fold
same,increase in intratumoral NK cells,[1]; control mice,~3 fold
same,cell surface fucosylation relative to DMSO,[2],increased
same,L-fuc-triggered tumor suppression,[3],abrogates
same,L-fuc-triggered tumor suppression,[3]; listed as L-fuc,completely abrogated
same,reduced tumor growth,[3]; control knockdown (shNT / shNT+EV) tumors,~60%
same,tumor suppression,[3]; shEB1+N46G tumors,did not suppress
same,reduced tumor growth,[3]; shEB1+WT tumors,> 60%
same,L-fuc-triggered induction of total TIL counts and subpopulations,[3]; shEB1 tumors,reduced; also recorded: abrogated
same,TIL induction by L-fuc,[3]; shEB1 tumors reconstituted with EB1 WT,restored
same,TIL induction by L-fuc,[3]; shEB1 tumors reconstituted with EV or EB1 N46G,did not

# Reference: patent publication US12642809B2, “Fucosylation and immune modulation in cancer” (H. LEE MOFFITT CANCER CENTER AND RESEARCH INSTITUTE, INC., priority 2019, dated 2026)
